# Patent US6458764B1, “GRF analogs with increased biological potency” (Theratechnologies Inc., priority 1995, dated 2002)
# Where no end group is shown, it is not given here. The star is where a group is joined. Hexanoyl = CCCCCC(=O)*
# Tests used:
# serum IGF-I [1] = test: Comparative effects of GRF analogs on IGF-I levels in pigs (Example II, D-IGF-I, FIG. 1); format: in vivo, pigs (Landrace x Yorkshire); conditions: 20 μg/kg 2×/day S.C., days 1 to 5, n=8 pigs per group
# Procedure: This was a 5-day treatment, twice a day S.C. administration of one single dose of each test article vs saline. This experiment was conducted to compare the efficacy of (Aminohexanoyl)0 hGRF (1-29) NH2, (Hexylformiate)0 hGRF (1-29) NH2, (Hexenoyl trans-2)0 hGRF (1-29) NH2, (Hexenoyl trans-3)0 hGRF (1-29) NH2 and (Muconoyl)0 hGRF (1-29) NH2 to that of(Hexanoyl)0 hGRF (1-29) NH2.
# ADMINISTRATION: Two daily subcutaneous injections.
# TEST SYSTEM: Landrace x Yorkshire pigs.
# ANIMAL DESCRIPTION: Fifty six (56) growing barrows pigs weighing 35 kg at the time of purchase.
# DESIGN: Fifty six (56) pigs were randomly distributed into 7 experimental groups (n=8 pigs per group). Each group received two daily S.C. administration of the following treatments (volume: 3 ml, S.C. injection).
# Treatments were administered from day 1 to 5. Immediately before the injections, one blood sample were collected from each animal, and additional blood samples were collected on day 6.
# Blood samples were allowed to clot, serum was harvested by centrifugation and submitted to IGF-I assays.
# Results are shown in FIG. 1 as D-IGF-I, which is defined as the increase in IGF-I levels from day 1 (pretreatment levels) to day 6 (after 5 days of GRFs administrations).
# serum IGF-I [2] = test: Repeated S.C. administrations of GRF analogs, serum IGF-I levels in pigs (Example I, Experiments 1-3; radioimmunoassay); format: in vivo, pigs (Landrace x Yorkshire); conditions: for serum IGF-I, Day 1 (pretreatment): pretreatment baseline; for increase in IGF-I levels: P<0.05
# Procedure: The objective of these experiments was to assess the potential of the GRF analogs as anabolic agents.
# Therefore, in order to investigate the anabolic potency of the fatty acid-GRF analogs, their ability to increase IGF-I levels following repeated S.C. administrations in pig was evaluated.
# 26 Landrace x Yorkshire castrated male pigs (40-45 kg BW) were randomly distributed into 4 experimental groups:
# Each animal was injected BID (twice a day) subcutaneously for 4 consecutive days. One blood sample was collected each morning prior to the first injection of the day, and the day after the last injection, for IGF-I measurement.
# 40 Landrace x Yorkshire castrated male pigs (40-45 kg BW) were randomly distributed into 5 experimental groups:
# Each animal was injected BID (twice a day) subcutaneously for 5 consecutive days. One blood sample was collected each morning prior to the first injection of the day, and the day after the last injection, for IGF-I measurement.
# 48 Landrace x Yorkshire castrated male pigs (40-45 kg BW) were randomly distributed into 6 experimental groups:
# The selected doses were 30 μg/kg for hGRF(1-44)NH2 analogs and 20 μg/kg for hGRF(1-29)NH2 analogs, which give identical doses on a molar basis. Each animal was injected BID (twice a day) subcutaneously for 5 consecutive days. One blood sample was collected each morning prior to the first injection of the day, and the day after the last injection, for IGF-I measurements.
# IGF-I levels were measured in pig serum by double antibody radioimmunoassay after formic acid-acetone extraction, as previously described (Abribat T. et al., 1993, J. Endocrinol., 39:583-589). The extraction prior to radioimmunoassay is a necessary step to remove endogenous IGF-binding proteins.
# In both experiments, the IGF-I data were analyzed by a two way repeated measure analysis of variance, with day and treatment (GRF analog) as sources of variation. Multiple comparison procedures were there run (Student-Newman Keuls method). A P<0.05 was considered as statistically significant.
# [3] = Experiment 1, 20 μg/kg BID SC × 4 days, mean of 6 to 7
# [4] = Experiment 3, 20 μg/kg BID SC × 5 days, mean of 8
# [5] = Experiment 3, 30 μg/kg BID SC × 5 days, mean of 8
substance,measurement,setting,value
"(Muconoyl)0 hGRF (1-29) NH2 (muconoyl-YADAIFTNSYRKVLGQLSARKLLQDIMSR-NH2; UniProt P01286 32-60, looked up, fragment) [muconoyl-hGRF(1-29)NH2]",D-IGF-I: increase in IGF-I levels from day 1 (pretreatment) to day 6,serum IGF-I [1],did not
"[butyryl^0] hGRF(1-29)NH2 (YADAIFTNSYRKVLGQLSARKLLQDIMSR; HELM PEPTIDE1{[CCCC(=O)[*:2]].Y.A.D.A.I.F.T.N.S.Y.R.K.V.L.G.Q.L.S.A.R.K.L.L.Q.D.I.M.S.R.[am]}$$$$V2.0; SMILES CCCC(=O)N[C@@H](Cc1ccc(O)cc1)C(=O)N[C@@H](C)C(=O)N[C@@H](CC(=O)O)C(=O)N[C@@H](C)C(=O)N[C@H](C(=O)N[C@@H](Cc1ccccc1)C(=O)N[C@H](C(=O)N[C@@H](CC(N)=O)C(=O)N[C@@H](CO)C(=O)N[C@@H](Cc1ccc(O)cc1)C(=O)N[C@@H](CCCNC(=N)N)C(=O)N[C@@H](CCCCN)C(=O)N[C@H](C(=O)N[C@@H](CC(C)C)C(=O)NCC(=O)N[C@@H](CCC(N)=O)C(=O)N[C@@H](CC(C)C)C(=O)N[C@@H](CO)C(=O)N[C@@H](C)C(=O)N[C@@H](CCCNC(=N)N)C(=O)N[C@@H](CCCCN)C(=O)N[C@@H](CC(C)C)C(=O)N[C@@H](CC(C)C)C(=O)N[C@@H](CCC(N)=O)C(=O)N[C@@H](CC(=O)O)C(=O)N[C@H](C(=O)N[C@@H](CCSC)C(=O)N[C@@H](CO)C(=O)N[C@@H](CCCNC(=N)N)C(N)=O)[C@@H](C)CC)C(C)C)[C@@H](C)O)[C@@H](C)CC; UniProt P01286 32-60, looked up, fragment)","serum IGF-I, Day 2",serum IGF-I [2]; [3],281 ng/mL
same,"serum IGF-I, Day 3",serum IGF-I [2]; [3],302 ng/mL
same,"serum IGF-I, Day 4",serum IGF-I [2]; [3],289 ng/mL
same,"serum IGF-I, Day 5",serum IGF-I [2]; [3],293 ng/mL
same,"serum IGF-I, Day 1 (pretreatment)",serum IGF-I [2]; [3],278 ng/mL
"(Hexylformiate)0 hGRF (1-29) NH2 (hexylformiate-YADAIFTNSYRKVLGQLSARKLLQDIMSR-NH2; UniProt P01286 32-60, looked up, fragment) [hexylformiate-hGRF(1-29)NH2]",D-IGF-I: increase in IGF-I levels from day 1 (pretreatment) to day 6,serum IGF-I [1],significantly increased IGF-I levels
"[hexanoyl^30]hGRF(1-29)NH2 (YADAIFTNSYRKVLGQLSARKLLQDIMSR-NH2; also: hexanoyl at position 30; UniProt P01286 32-60, looked up, fragment) [[hexanoyl^30] hGRF(1-29)NH2, hexanoyl function anchored at the C-terminal region of hGRF(1-29)NH2]","serum IGF-I, Day 2",serum IGF-I [2]; [4],270 ng/mL
same,"serum IGF-I, Day 3",serum IGF-I [2]; [4],287 ng/mL
same,"serum IGF-I, Day 4",serum IGF-I [2]; [4],278 ng/mL
same,"serum IGF-I, Day 5",serum IGF-I [2]; [4],276 ng/mL
same,"serum IGF-I, Day 6",serum IGF-I [2]; [4],327 ng/mL
same,"serum IGF-I, Day 1 (pretreatment)",serum IGF-I [2]; [4],297 ng/mL
"[octanoyl^0] hGRF(1-29)NH2 (YADAIFTNSYRKVLGQLSARKLLQDIMSR; HELM PEPTIDE1{[CCCCCCCC(=O)[*:2]].Y.A.D.A.I.F.T.N.S.Y.R.K.V.L.G.Q.L.S.A.R.K.L.L.Q.D.I.M.S.R.[am]}$$$$V2.0; SMILES CCCCCCCC(=O)N[C@@H](Cc1ccc(O)cc1)C(=O)N[C@@H](C)C(=O)N[C@@H](CC(=O)O)C(=O)N[C@@H](C)C(=O)N[C@H](C(=O)N[C@@H](Cc1ccccc1)C(=O)N[C@H](C(=O)N[C@@H](CC(N)=O)C(=O)N[C@@H](CO)C(=O)N[C@@H](Cc1ccc(O)cc1)C(=O)N[C@@H](CCCNC(=N)N)C(=O)N[C@@H](CCCCN)C(=O)N[C@H](C(=O)N[C@@H](CC(C)C)C(=O)NCC(=O)N[C@@H](CCC(N)=O)C(=O)N[C@@H](CC(C)C)C(=O)N[C@@H](CO)C(=O)N[C@@H](C)C(=O)N[C@@H](CCCNC(=N)N)C(=O)N[C@@H](CCCCN)C(=O)N[C@@H](CC(C)C)C(=O)N[C@@H](CC(C)C)C(=O)N[C@@H](CCC(N)=O)C(=O)N[C@@H](CC(=O)O)C(=O)N[C@H](C(=O)N[C@@H](CCSC)C(=O)N[C@@H](CO)C(=O)N[C@@H](CCCNC(=N)N)C(N)=O)[C@@H](C)CC)C(C)C)[C@@H](C)O)[C@@H](C)CC; UniProt P01286 32-60, looked up, fragment)","serum IGF-I, Day 2",serum IGF-I [2]; [3],287 ng/mL
same,"serum IGF-I, Day 3",serum IGF-I [2]; [3],301 ng/mL
same,"serum IGF-I, Day 4",serum IGF-I [2]; [3],301 ng/mL
same,"serum IGF-I, Day 5",serum IGF-I [2]; [3],318 ng/mL
same,"serum IGF-I, Day 1 (pretreatment)",serum IGF-I [2]; [3],316 ng/mL
"(Aminohexanoyl)0 hGRF (1-29) NH2 (aminohexanoyl-YADAIFTNSYRKVLGQLSARKLLQDIMSR-NH2; UniProt P01286 32-60, looked up, fragment) [aminohexanoyl-hGRF(1-29)NH2]",D-IGF-I: increase in IGF-I levels from day 1 (pretreatment) to day 6,serum IGF-I [1],did not
"[hexanoyl^0]hGRF(1-44)NH2 (Hexanoyl-YADAIFTNSYRKVLGQLSARKLLQDIMSRQQGESNQERGARARL-NH2; UniProt P01286 32-75, looked up) [[hexanoyl^0] hGRF(1-44)NH2]","serum IGF-I, Day 2",serum IGF-I [2]; [5],290 ng/mL
same,"serum IGF-I, Day 3",serum IGF-I [2]; [5],340 ng/mL
same,"serum IGF-I, Day 4",serum IGF-I [2]; [5],372 ng/mL
same,"serum IGF-I, Day 5",serum IGF-I [2]; [5],361 ng/mL
same,"serum IGF-I, Day 6",serum IGF-I [2]; [5],388 ng/mL
same,"serum IGF-I, Day 1 (pretreatment)",serum IGF-I [2]; [5],241 ng/mL
same,increase in IGF-I levels,"serum IGF-I [2]; Experiment 3, 30 μg/kg BID SC, day 3",41%
same,increase in IGF-I levels,"serum IGF-I [2]; Experiment 3, 30 μg/kg BID SC, day 4",54%
same,increase in IGF-I levels,"serum IGF-I [2]; Experiment 3, 30 μg/kg BID SC, day 5",50%
same,increase in IGF-I levels,"serum IGF-I [2]; Experiment 3, 30 μg/kg BID SC, day 6",61%
"[hexanoyl^0, 30]hGRF(1-29)NH2 (Hexanoyl-YADAIFTNSYRKVLGQLSARKLLQDIMSR-NH2; also: hexanoyl at position 30; UniProt P01286 32-60, looked up, fragment) [[hexanoyl^0,30] hGRF(1-29)NH2]","serum IGF-I, Day 2",serum IGF-I [2]; [4],212 ng/mL
same,"serum IGF-I, Day 3",serum IGF-I [2]; [4],253 ng/mL
same,"serum IGF-I, Day 4",serum IGF-I [2]; [4],271 ng/mL
same,"serum IGF-I, Day 5",serum IGF-I [2]; [4],277 ng/mL
same,"serum IGF-I, Day 6",serum IGF-I [2]; [4],294 ng/mL
same,"serum IGF-I, Day 1 (pretreatment)",serum IGF-I [2]; [4],205 ng/mL
same,increase in IGF-I levels,"serum IGF-I [2]; Experiment 3, 20 μg/kg BID SC, day 4",32%
same,increase in IGF-I levels,"serum IGF-I [2]; Experiment 3, 20 μg/kg BID SC, day 5",35%
same,increase in IGF-I levels,"serum IGF-I [2]; Experiment 3, 20 μg/kg BID SC, day 6",43%
"(Hexenoyl trans-2)0 hGRF (1-29) NH2 ({trans‑2‑hexenoyl}-YADAIFTNSYRKVLGQLSARKLLQDIMSR-NH2; UniProt P01286 32-60, looked up, fragment) [hexenoyl trans2-hGRF(1-29)NH2]",D-IGF-I: increase in IGF-I levels from day 1 (pretreatment) to day 6,serum IGF-I [1],significantly increased IGF-I levels
